From the NIST ThermoML archive (doi:10.1016/j.fluid.2005.06.024)
± gives the expanded uncertainty stated by the source.

Legend:
[1] = 298.15 K; 101.3 kPa; Liquid
[2] = xn = mol fraction of the nth substance listed; conditions: 298.15 K, 101.3 kPa, Liquid

CCOC(=O)OCC [diethyl carbonate]
mass density [1]: 969.24 ± 0.27 kg/m3
speed of sound [1]: 1178 ± 2 m/s

CCC(C)=O [butanone]
mass density [1]: 799.7 ± 0.35 kg/m3
speed of sound [1]: 1192 ± 2 m/s

CCOC(=O)OCC [diethyl carbonate] + CC(C)=O
mass density ([2]; x2 = 0): 969.24 ± 0.27 kg/m3
speed of sound ([2]; x2 = 0): 1178 ± 2 m/s
mass density ([2]; x2 = 0.0384): 964.96 ± 0.27 kg/m3
speed of sound ([2]; x2 = 0.0384): 1177 ± 2 m/s
mass density ([2]; x2 = 0.0901): 959 ± 0.26 kg/m3
speed of sound ([2]; x2 = 0.0901): 1176 ± 2 m/s
mass density ([2]; x2 = 0.1832): 947.54 ± 0.26 kg/m3
speed of sound ([2]; x2 = 0.1832): 1175 ± 2 m/s
mass density ([2]; x2 = 0.2827): 934.21 ± 0.25 kg/m3
speed of sound ([2]; x2 = 0.2827): 1173 ± 2 m/s
mass density ([2]; x2 = 0.3847): 919.29 ± 0.25 kg/m3
speed of sound ([2]; x2 = 0.3847): 1171 ± 2 m/s
mass density ([2]; x2 = 0.4847): 903.08 ± 0.26 kg/m3
speed of sound ([2]; x2 = 0.4847): 1170 ± 2 m/s
mass density ([2]; x2 = 0.5888): 884.33 ± 0.26 kg/m3
speed of sound ([2]; x2 = 0.5888): 1168 ± 2 m/s
mass density ([2]; x2 = 0.6936): 863.26 ± 0.26 kg/m3
speed of sound ([2]; x2 = 0.6936): 1166 ± 2 m/s
mass density ([2]; x2 = 0.7967): 839.9 ± 0.27 kg/m3
speed of sound ([2]; x2 = 0.7967): 1164 ± 2 m/s
mass density ([2]; x2 = 0.9017): 813 ± 0.29 kg/m3
speed of sound ([2]; x2 = 0.9017): 1162 ± 2 m/s
mass density ([2]; x2 = 0.9546): 798.07 ± 0.3 kg/m3
speed of sound ([2]; x2 = 0.9546): 1162 ± 2 m/s

CCOC(=O)OCC [diethyl carbonate] + CCCC(C)=O
mass density ([2]; x2 = 0): 969.24 ± 0.27 kg/m3
speed of sound ([2]; x2 = 0): 1178 ± 2 m/s

CCCC(C)=O [pentan-2-one] + CCOC(=O)OCC
mass density ([2]; x1 = 0.0483): 962.08 ± 0.27 kg/m3
speed of sound ([2]; x1 = 0.0483): 1179 ± 2 m/s
mass density ([2]; x1 = 0.0983): 954.6 ± 0.28 kg/m3
speed of sound ([2]; x1 = 0.0983): 1180 ± 2 m/s
mass density ([2]; x1 = 0.1923): 940.27 ± 0.28 kg/m3
speed of sound ([2]; x1 = 0.1923): 1183 ± 2 m/s
mass density ([2]; x1 = 0.2988): 923.61 ± 0.29 kg/m3
speed of sound ([2]; x1 = 0.2988): 1187 ± 2 m/s
mass density ([2]; x1 = 0.3998): 907.38 ± 0.3 kg/m3
speed of sound ([2]; x1 = 0.3998): 1190 ± 2 m/s
mass density ([2]; x1 = 0.4996): 890.92 ± 0.31 kg/m3
speed of sound ([2]; x1 = 0.4996): 1193 ± 2 m/s
mass density ([2]; x1 = 0.6034): 873.34 ± 0.31 kg/m3
speed of sound ([2]; x1 = 0.6034): 1197 ± 2 m/s
mass density ([2]; x1 = 0.7077): 855.18 ± 0.32 kg/m3
speed of sound ([2]; x1 = 0.7077): 1201 ± 2 m/s
mass density ([2]; x1 = 0.8037): 838 ± 0.33 kg/m3
speed of sound ([2]; x1 = 0.8037): 1204 ± 2 m/s
mass density ([2]; x1 = 0.9026): 819.83 ± 0.34 kg/m3
speed of sound ([2]; x1 = 0.9026): 1208 ± 2 m/s
mass density ([2]; x1 = 0.9491): 811.1 ± 0.34 kg/m3
speed of sound ([2]; x1 = 0.9491): 1210 ± 2 m/s
mass density ([2]; x1 = 1): 801.39 ± 0.35 kg/m3
speed of sound ([2]; x1 = 1): 1212 ± 2 m/s

CC(C)=O [acetone]
mass density [1]: 784.37 ± 0.31 kg/m3
speed of sound [1]: 1162 ± 2 m/s

CC(C)=O [acetone] + CCOC(=O)OCC
mass density ([2]; x1 = 1): 784.37 ± 0.31 kg/m3
speed of sound ([2]; x1 = 1): 1162 ± 2 m/s

CCOC(=O)OCC [diethyl carbonate] + CCC(C)=O
mass density ([2]; x2 = 0): 969.24 ± 0.27 kg/m3
speed of sound ([2]; x2 = 0): 1178 ± 2 m/s
mass density ([2]; x2 = 0.0486): 963.14 ± 0.27 kg/m3
speed of sound ([2]; x2 = 0.0486): 1178 ± 2 m/s
mass density ([2]; x2 = 0.1002): 956.52 ± 0.28 kg/m3
speed of sound ([2]; x2 = 0.1002): 1179 ± 2 m/s
mass density ([2]; x2 = 0.1958): 943.68 ± 0.28 kg/m3
speed of sound ([2]; x2 = 0.1958): 1180 ± 2 m/s
mass density ([2]; x2 = 0.2977): 929.22 ± 0.29 kg/m3
speed of sound ([2]; x2 = 0.2977): 1181 ± 2 m/s
mass density ([2]; x2 = 0.399): 913.95 ± 0.29 kg/m3
speed of sound ([2]; x2 = 0.399): 1182 ± 2 m/s
mass density ([2]; x2 = 0.4976): 898.2 ± 0.31 kg/m3
speed of sound ([2]; x2 = 0.4976): 1184 ± 2 m/s
mass density ([2]; x2 = 0.6444): 872.87 ± 0.31 kg/m3
speed of sound ([2]; x2 = 0.6444): 1186 ± 2 m/s
mass density ([2]; x2 = 0.7172): 859.36 ± 0.32 kg/m3
speed of sound ([2]; x2 = 0.7172): 1187 ± 2 m/s
mass density ([2]; x2 = 0.8294): 837.19 ± 0.33 kg/m3
speed of sound ([2]; x2 = 0.8294): 1189 ± 2 m/s
mass density ([2]; x2 = 0.9031): 821.58 ± 0.34 kg/m3
speed of sound ([2]; x2 = 0.9031): 1190 ± 2 m/s
mass density ([2]; x2 = 0.9554): 810.05 ± 0.34 kg/m3
speed of sound ([2]; x2 = 0.9554): 1191 ± 2 m/s

CCC(C)=O [butanone] + CCOC(=O)OCC
mass density ([2]; x1 = 1): 799.7 ± 0.35 kg/m3
speed of sound ([2]; x1 = 1): 1192 ± 2 m/s

CCCC(C)=O [pentan-2-one]
mass density [1]: 801.39 ± 0.35 kg/m3
speed of sound [1]: 1212 ± 2 m/s
